IC50 data for 17 compounds are collected here from patent US20230000870A1, “METHODS OF TREATING CANCER IN BIOMARKER-IDENTIFIED PATIENTS WITH INHIBITORS OF CYCLIN-DEPENDENT KINASE 7 (CDK7)” (Syros Pharmaceuticals, Inc., priority 2019, published 2023).

Test [1] concerns the target CDK7/Cyclin H/MAT1 complex (Homo sapiens, UniProt P50613). Briefly: CDK7 kinase inhibition assay (Caliper/LabChip EZ Reader). Format: biochemical. Conditions: CDK7/Cyclin H/MAT1 6 nM, ATP 2 mM, 35 min at 27° C. In short, it runs like this: (§1)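 Incubation times were set for ~20% (±5%) peptide phosphorylation by uninhibited enzyme: CDK7 35 min, CDK2 35 min (0.5 nM complex, 2 μM 5-FAM-CDK7tide, 2 mM MgCl2), CDK12 3 hr (50 nM, 2 μM 5-FAM-CDK9tide, 2 mM MgCl2), CDK9 15 min (8 nM, 2 μM 5-FAM-CDK9tide, 10 mM MgCl2). Read-out on LabChip EZ Reader, 27° C.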

In test [2] the target is T1, CDK12 (aa686-1082)/Cyclin K complex (Homo sapiens, UniProt Q9NYV4).
T1 construct: CDK12 (aa686-1082)/Cyclin K complex
In words: CDK12 kinase inhibition assay (Caliper/LabChip EZ Reader). Format: biochemical. Conditions: CDK12 (aa686-1082)/Cyclin K 50 nM, ATP 2 mM, 3 hr at 27° C. In short, it runs like this: as §1

For the next test, the system named is HCC70 cells. Briefly: Inhibition of proliferation of HCC70 cells (CyQUANT Direct, 72 hour). The format is cell-based, human. The settings on record: read-out: Inhibition of Proliferation of HCC70 Cells (calculated IC50). As for the experimental part: HCC70 cells: HCC70 cells are a cell line derived from human triple negative breast cancer. Representative compounds of the invention were tested at different concentrations (from 4 μM to […]; 0.5 log serial dilutions) for their ability to inhibit the proliferation of HCC70 cells. Known CDK inhibitors dinaciclib or N-((1S,3R)-3-((5-chloro-4-(1H-indol-3-yl) pyrimidin-2-yl)amino)cyclohexyl)-5-((E)-4-(dimethylamino)but-2-enamido)picolinamide and triptolide were used as positive controls. Cells were grown in ATCC-formulated RPMI-1640 Medium (ATCC 30-2001)+10% FBS. The cells were cultured at 37° C. in a humidified chamber in the presence of 5% CO2. Proliferation assays were conducted over a 72 hour time period. CyQUANT® Direct Cell Proliferation Assay (Life Technologies, Chicago, Ill. USA) was used to assess the anti-proliferative effects of the compounds following manufacturer's directions and utilizing the reagents supplied with the CyQUANT® Direct Cell kit.

A further test concerns the target CDK2/Cyclin E1 complex (Homo sapiens, UniProt P24941). Briefly: CDK2 kinase inhibition assay (Caliper/LabChip EZ Reader). Conditions: CDK2/Cyclin E1 0.5 nM, ATP 2 mM, 35 min at 27° C. The format is biochemical. In a few lines: as §1
A further test has as its target CDK9/Cyclin T1 complex (Homo sapiens, UniProt P50750). Briefly: CDK9 kinase inhibition assay (Caliper/LabChip EZ Reader). Format: biochemical. The settings on record: CDK9/Cyclin T1 8 nM, ATP 2 mM, 15 min at 27° C. In a few lines:
as §1

In the next test the test system is A673 cells. In words: Inhibition of proliferation of A673 cells (CyQUANT, 72 hour). Conditions: read-out: Inhibition of Proliferation of A673 Cells (calculated IC50). The format is cell-based, human. In a few lines: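 Read-out is CyQUANT after a 72 h proliferation period, following the kit protocol. Dilution series in 0.5-log steps over the stated 4 μM to […] range. Cells are A673 (human Ewing's sarcoma), grown in DMEM with 10% FBS and 1 mM sodium pyruvate at 37 °C under 5% CO2.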

T1 sequence (Q9NYV4 686-1082): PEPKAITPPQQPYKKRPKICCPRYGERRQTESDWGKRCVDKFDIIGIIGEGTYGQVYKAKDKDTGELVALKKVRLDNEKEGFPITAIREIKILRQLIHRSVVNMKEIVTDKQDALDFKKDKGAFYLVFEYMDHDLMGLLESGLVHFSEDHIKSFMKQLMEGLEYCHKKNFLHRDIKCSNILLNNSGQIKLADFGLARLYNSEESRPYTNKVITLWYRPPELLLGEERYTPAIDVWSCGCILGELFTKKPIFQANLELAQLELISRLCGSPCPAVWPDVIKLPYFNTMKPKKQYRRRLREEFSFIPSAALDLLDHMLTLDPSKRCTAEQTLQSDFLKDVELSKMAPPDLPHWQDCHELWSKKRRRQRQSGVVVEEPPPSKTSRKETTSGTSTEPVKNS
T1 sequence (O75909 whole entry partner, the tested form may be a part): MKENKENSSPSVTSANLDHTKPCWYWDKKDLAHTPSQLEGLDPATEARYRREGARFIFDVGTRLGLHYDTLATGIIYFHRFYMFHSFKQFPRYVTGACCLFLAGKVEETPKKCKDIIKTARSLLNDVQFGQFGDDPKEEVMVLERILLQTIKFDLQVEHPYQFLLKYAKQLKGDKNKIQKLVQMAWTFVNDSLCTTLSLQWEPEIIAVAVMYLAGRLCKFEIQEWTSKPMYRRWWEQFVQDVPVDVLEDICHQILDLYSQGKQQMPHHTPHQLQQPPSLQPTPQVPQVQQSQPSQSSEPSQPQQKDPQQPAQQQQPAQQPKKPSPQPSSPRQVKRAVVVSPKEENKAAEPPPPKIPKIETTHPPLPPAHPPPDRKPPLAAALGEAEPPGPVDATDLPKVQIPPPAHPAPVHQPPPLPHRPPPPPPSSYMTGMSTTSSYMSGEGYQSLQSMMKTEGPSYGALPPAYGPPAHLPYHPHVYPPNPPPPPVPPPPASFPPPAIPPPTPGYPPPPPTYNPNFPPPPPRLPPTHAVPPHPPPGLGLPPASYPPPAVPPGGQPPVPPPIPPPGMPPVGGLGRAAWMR
Sequence of CDK7/Cyclin H/MAT1 complex (P50613 whole entry): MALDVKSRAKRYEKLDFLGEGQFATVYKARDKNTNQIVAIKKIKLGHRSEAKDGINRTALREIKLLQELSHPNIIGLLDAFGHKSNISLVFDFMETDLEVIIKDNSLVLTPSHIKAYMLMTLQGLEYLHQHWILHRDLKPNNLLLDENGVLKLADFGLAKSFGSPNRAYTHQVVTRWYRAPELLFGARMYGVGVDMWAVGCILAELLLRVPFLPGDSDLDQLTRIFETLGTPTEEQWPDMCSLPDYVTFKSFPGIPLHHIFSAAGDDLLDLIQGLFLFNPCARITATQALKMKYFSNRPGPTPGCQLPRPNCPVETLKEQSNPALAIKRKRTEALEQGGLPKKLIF
Sequence of CDK7/Cyclin H/MAT1 complex (P51946 whole entry partner): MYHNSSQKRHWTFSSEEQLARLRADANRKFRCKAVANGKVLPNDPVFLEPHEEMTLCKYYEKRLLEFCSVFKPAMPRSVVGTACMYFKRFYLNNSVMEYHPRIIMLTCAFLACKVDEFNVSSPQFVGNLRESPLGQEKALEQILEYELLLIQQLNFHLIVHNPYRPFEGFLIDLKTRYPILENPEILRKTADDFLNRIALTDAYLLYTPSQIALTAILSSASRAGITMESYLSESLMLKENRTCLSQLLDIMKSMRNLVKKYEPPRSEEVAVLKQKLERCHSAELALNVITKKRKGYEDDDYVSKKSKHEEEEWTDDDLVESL
Sequence of CDK7/Cyclin H/MAT1 complex (P51948 whole entry partner): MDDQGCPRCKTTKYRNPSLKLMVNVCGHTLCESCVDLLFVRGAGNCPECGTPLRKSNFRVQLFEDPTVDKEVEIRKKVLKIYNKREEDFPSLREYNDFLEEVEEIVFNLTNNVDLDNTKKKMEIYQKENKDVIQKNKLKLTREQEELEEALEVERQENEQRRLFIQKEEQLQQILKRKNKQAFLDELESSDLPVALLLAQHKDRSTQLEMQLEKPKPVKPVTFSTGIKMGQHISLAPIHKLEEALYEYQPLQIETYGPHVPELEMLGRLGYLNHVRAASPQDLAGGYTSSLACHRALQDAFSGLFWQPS
Sequence of CDK9/Cyclin T1 complex (P50750 whole entry): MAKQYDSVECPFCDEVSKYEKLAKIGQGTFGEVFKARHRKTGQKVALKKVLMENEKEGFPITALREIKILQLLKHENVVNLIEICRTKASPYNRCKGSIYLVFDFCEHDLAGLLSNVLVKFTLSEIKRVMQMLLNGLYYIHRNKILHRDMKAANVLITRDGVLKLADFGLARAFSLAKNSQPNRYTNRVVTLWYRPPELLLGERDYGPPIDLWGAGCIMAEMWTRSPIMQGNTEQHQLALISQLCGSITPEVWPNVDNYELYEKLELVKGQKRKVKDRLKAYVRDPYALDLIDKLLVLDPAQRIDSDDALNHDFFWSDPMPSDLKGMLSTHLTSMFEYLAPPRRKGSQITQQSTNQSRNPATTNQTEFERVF
Sequence of CDK9/Cyclin T1 complex (O60563 whole entry partner): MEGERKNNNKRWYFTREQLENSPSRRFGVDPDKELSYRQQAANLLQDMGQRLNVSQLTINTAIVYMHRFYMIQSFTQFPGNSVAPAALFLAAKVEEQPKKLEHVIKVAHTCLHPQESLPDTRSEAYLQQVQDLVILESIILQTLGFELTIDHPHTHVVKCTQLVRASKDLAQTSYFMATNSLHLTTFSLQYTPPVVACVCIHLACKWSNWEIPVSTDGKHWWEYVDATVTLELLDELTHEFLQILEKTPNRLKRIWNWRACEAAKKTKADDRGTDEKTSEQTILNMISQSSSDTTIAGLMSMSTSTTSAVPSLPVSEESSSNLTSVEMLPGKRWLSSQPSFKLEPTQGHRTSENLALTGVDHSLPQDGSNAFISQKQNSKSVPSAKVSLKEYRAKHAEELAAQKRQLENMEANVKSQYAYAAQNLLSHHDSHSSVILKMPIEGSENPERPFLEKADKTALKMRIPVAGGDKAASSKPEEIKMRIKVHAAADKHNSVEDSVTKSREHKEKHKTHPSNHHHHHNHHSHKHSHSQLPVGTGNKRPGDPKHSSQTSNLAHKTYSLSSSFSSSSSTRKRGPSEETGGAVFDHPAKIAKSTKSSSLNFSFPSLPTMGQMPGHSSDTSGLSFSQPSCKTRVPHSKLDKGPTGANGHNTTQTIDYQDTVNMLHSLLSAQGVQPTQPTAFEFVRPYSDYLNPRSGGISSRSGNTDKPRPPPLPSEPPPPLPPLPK

For the compound `NS(=O)(=O)c1ccc(-c2ccc3c(-c4nc(N[C@H]5CCCNC5)ncc4C(F)(F)F)c[nH]c3c2)cc1` [Compound 331], the figures for the IC50 (in test [1]; in test [2]; in the test on HCC70 cells) were 0.02 to 0.2 µM, 0.2 to 5 µM and 0.1 to 1 µM, respectively.
On to `FC(F)(F)c1cc2[nH]cc(-c3ccc4c(-c5nc(N[C@H]6CCCNC6)ncc5C(F)(F)F)c[nH]c4c3)c2cn1` [Compound 319], for which the IC50 was 0.02 to 0.2 µM in test [1], 0.2 to 5 µM in test [2] and 1 to 5 µM with HCC70 cells.
Regarding `OCCc1cccc(-c2ccc3c(-c4nc(NC5CCCNC5)ncc4C(F)(F)F)c[nH]c3c2)c1` (centres unmarked) [Compound 324], the IC50 in test [1] is 0.02 to 0.2 µM; in test [2], 0.2 to 5 µM; in the test with HCC70 cells, 0.1 to 1 µM.
Turning to `CCc1cnc(NC2CCCNC2)nc1-c1c[nH]c2c(S(C)(=O)=O)cccc12` (centres unmarked) [Compound 269], in the test on HCC70 cells, the IC50 is 0.1 to 1 µM.
As to `FC(F)(F)c1cnc(N[C@H]2CCCNC2)nc1-c1c[nH]c2cc(-c3ccc4ccncc4c3)ccc12` [Compound 325], the IC50 in test [1] is 0.02 to 0.2 µM; in test [2], 0.2 to 5 µM; in the test with HCC70 cells, 0.1 to 1 µM.
For the compound `Fc1cncc(-c2ccc3c(-c4nc(NC5CCCNC5)ncc4C(F)(F)F)c[nH]c3c2)c1` (centres unmarked) [Compound 335], in the test with HCC70 cells, the IC50 was 0.1 to 1 µM.
Regarding `Cn1ncc2ccc(-c3ccc4c(-c5nc(NC6CCCNC6)ncc5C(F)(F)F)c[nH]c4c3)cc21` (centres unmarked) [Compound 337], the IC50 was 0.02 to 0.2 µM in test [1], 0.2 to 5 µM in test [2] and 0.1 to 1 µM in the test with HCC70 cells.
For `NS(=O)(=O)c1cccc(-c2ccc3c(-c4nc(NC5CCCNC5)ncc4C(F)(F)F)c[nH]c3c2)c1` (centres unmarked) [Compound 326], in that order: 0.02 to 0.2 µM, 0.2 to 5 µM and 0.1 to 1 µM.
For `N#Cc1cc(-c2ccc3c(-c4nc(NC5CCCNC5)ncc4C(F)(F)F)c[nH]c3c2)ccc1O` (centres unmarked) [Compound 315], in that order: 0.02 to 0.2 µM, 0.2 to 5 µM and 1 to 5 µM.
For `FC(F)(F)c1cnc(N[C@H]2CCCNC2)nc1-c1c[nH]c2cc(/C=C/c3ccccc3)ccc12` [Compound 317], in that order: 0.02 to 0.2 µM, 0.2 to 5 µM and 1 to 5 µM.
As for `Nc1ncc2cccc(-c3ccc4c(-c5nc(NC6CCCNC6)ncc5C(F)(F)F)c[nH]c4c3)c2n1` (centres unmarked) [Compound 322], the IC50 in test [1] is under 0.02 µM; in test [2] it was 0.2 to 5 µM; with HCC70 cells, 0.1 to 1 µM.
`CCc1cnc(N[C@H]2CCCNC2)nc1-c1n[nH]c2c(F)cccc12` [Compound 143]: the IC50 was 0.2 to 5 µM against CDK2/Cyclin E1 complex; under 0.02 µM in test [1]; 0.2 to 5 µM against CDK9/Cyclin T1 complex; 0.2 to 5 µM in test [2]; under 0.02 µM in the test on A673 cells.
Take `OC1CNCC(Nc2ncc(C(F)(F)F)c(-c3c[nH]c4ccccc34)n2)C1` (centres unmarked) [Compound 203]: the IC50 on CDK2/Cyclin E1 complex was 0.2 to 5 µM; in test [1], under 0.02 µM; against CDK9/Cyclin T1 complex it was 0.2 to 5 µM; in test [2], 0.2 to 5 µM; in the test with A673 cells it was under 0.02 µM.
As for `CCOP(=O)(OCC)c1ccc2[nH]cc(-c3nc(NC4CCCNC4)ncc3C(F)(F)F)c2c1` (centres unmarked) [Compound 183], the IC50 on CDK2/Cyclin E1 complex is 0.2 to 5 µM; in test [1] it was 0.02 to 0.2 µM; on CDK9/Cyclin T1 complex, 0.2 to 5 µM; in test [2] it was at least 5 µM; in the test on A673 cells it was 0.2 to 5 µM.
Turning to `N#Cc1cccc2c(-c3nc(NC4CCCNC4)ncc3C(F)(F)F)c[nH]c12` (centres unmarked) [Compound 153], the IC50 at CDK2/Cyclin E1 complex is 0.02 to 0.2 µM; in test [1], under 0.02 µM; against CDK9/Cyclin T1 complex it was 0.2 to 5 µM; in test [2] it was 0.02 to 0.2 µM; with A673 cells it was under 0.02 µM.
As for `Clc1cnc(NC2CCCNC2)nc1-c1c[nH]c2cccnc12` (centres unmarked) [Compound 146], the IC50 against CDK2/Cyclin E1 complex is at least 5 µM; in test [1], at least 5 µM; against CDK9/Cyclin T1 complex, at least 5 µM; in test [2], at least 5 µM; with A673 cells, 0.02 to 0.2 µM.
For the compound `Ic1cnc(NC2CCCNC2)nc1-c1c[nH]c2ccccc12` (centres unmarked) [Compound 147], the IC50 on CDK2/Cyclin E1 complex is 0.02 to 0.2 µM; in test [1] it was under 0.02 µM; on CDK9/Cyclin T1 complex, 0.2 to 5 µM; in test [2] it was 0.2 to 5 µM; with A673 cells it was under 0.02 µM.
